For assay [1], the system named is STEME. In words: Pre-emergence action against STEME, 1280 g/ha. Type of assay: in vivo, Stellaria media. To be noted: scored visually after about 3 weeks vs untreated controls (100% = plants have died). The method in brief: (§1)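 Sandy loam pots, seeds covered with soil; aqueous WP/EC spray on covering soil, 0.5% additive, 600 L/ha. Greenhouse growth, good conditions. Readout: visual % activity at ~3 weeks (0% = like control, 100% = dead).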

Assay [2] relates to VERPE. In words: Pre-emergence action against VERPE, 1280 g/ha. Type of assay: in vivo, Veronica persica. To be noted: scored visually after about 3 weeks vs untreated controls (100% = plants have died). The gist of the method:
as §1

In assay [3] the test system is SETVI. In words: Pre-emergence action against SETVI, 1280 g/ha. Type of assay: in vivo, Setaria viridis. To be noted: visual scoring after about 3 weeks vs untreated controls, 100% = plants have died, 0% = like control plants. The gist of the method: as §1
For assay [4], the system named is AMARE. Nature of the assay: Pre-emergence action against AMARE, 1280 g/ha. Type of assay: in vivo, Amaranthus retroflexus. To be noted: scored visually after about 3 weeks vs untreated controls (100% = plants have died). The gist of the method:
as §1

Assay [5] relates to ABUTH. Nature of the assay: Pre-emergence action against ABUTH, 1280 g/ha. Type of assay: in vivo, Abutilon theophrasti. The note with it: scored visually after about 3 weeks vs untreated controls (100% = plants have died). The text has this: 1. Pre-Emergence Herbicidal Effect and Crop Plant Compatibility a) Seeds of mono- and dicotyledonous weed plants are placed in plastic pots in sandy loam soil (doubly sown with one species each of mono- or dicotyledonous weed plants per pot) and covered with soil. The compounds of the invention, formulated in the form of wettable powders (WP) or as emulsion concentrates (EC), are then applied onto the surface of the covering soil as aqueous suspension or emulsion with addition of 0.5% additive at a water application rate equivalent to 600 litres per hectare. After the treatment, the pots are placed in a greenhouse and kept under good growth conditions for the trial plants. After about 3 weeks, the effect of the preparations is scored visually in comparison with untreated controls as percentages. For example, 100% activity=the plants have died, 0% activity=like control plants. 1. Pre-Emergence Effectiveness Tables 1 to 12 below show the effects of selected compounds of the general formula (I) according to Tables 1 and 2 on various harmful plants and at an application rate corresponding to 1280 g/ha, which were obtained by the experimental procedure mentioned above.

The subject of assay [6] is ECHCG. In words: Post-emergence action against ECHCG, 1.28 kg/ha. Type of assay: in vivo, Echinochloa crus-galli. The note with it: dosage 1280 g/ha, visual rating about 3 weeks after treatment vs untreated controls. The method in brief: (§2)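 Foliar application at the one-leaf stage: compound as WP or EC in water with 0.5% additive, sprayed at 600 L/ha. Plants are kept about 3 weeks in the greenhouse, then % herbicidal action is estimated visually (100% = death).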

Assay [7] concerns VERPE. Nature of the assay: Post-emergence action against VERPE, 1.28 kg/ha. Type of assay: in vivo, Veronica persica. The note with it: dosage 1280 g/ha, visual rating about 3 weeks after treatment vs untreated controls (100% = plants died). The method in brief: as §2
For assay [8], the system named is DIGSA. In words: Pre-emergence action against DIGSA, 1280 g/ha. Type of assay: in vivo, Digitaria sanguinalis. The note with it: visual scoring after about 3 weeks vs untreated controls, 100% = plants have died, 0% = like control plants. The gist of the method:
as §1

Assay [9] deals with ALOMY. In words: Pre-emergence action against ALOMY, 1280 g/ha. Type of assay: in vivo, Alopecurus myosuroides. The note with it: visual scoring after about 3 weeks vs untreated controls, 100% = plants have died, 0% = like control plants. The method in brief: as §1
In assay [10] the test system is ECHCG. In words: Pre-emergence action against ECHCG, 1280 g/ha. The note with it: visual scoring after about 3 weeks vs untreated controls, 100% = plants have died, 0% = like control plants. Type of assay: in vivo, Echinochloa crus-galli. The gist of the method: as §1
Assay [11] has as its system POAAN. In words: Pre-emergence action against POAAN, 1280 g/ha. Type of assay: in vivo, Poa annua. To be noted: visual scoring after about 3 weeks vs untreated controls, 100% = plants have died, 0% = like control plants. The method in brief: as §1
Assay [12] has as its system MATIN. In words: Pre-emergence action against MATIN, 1280 g/ha. Type of assay: in vivo, Tripleurospermum inodorum (Matricaria inodora). The note with it: scored visually after about 3 weeks vs untreated controls (100% = plants have died). The method in brief: as §1
Assay [13] deals with POAAN. Nature of the assay: Post-emergence action against POAAN, 1.28 kg/ha. The note with it: dosage 1280 g/ha, visual rating about 3 weeks after treatment vs untreated controls. Type of assay: in vivo, Poa annua. The gist of the method: as §2
In assay [14] the test system is VERPE. In words: Pre-emergence action at 320 g/ha against VERPE. Type of assay: in vivo, Veronica persica. To be noted: visual scoring after about 3 weeks vs untreated controls. The gist of the method:
(§3)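 Effect rated visually (% vs untreated control) about 3 weeks after pre-emergence spraying of WP/EC formulation onto soil; spray carried 0.5% additive at 600 l/ha water.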

Assay [15] relates to VIOTR. In words: Pre-emergence action at 320 g/ha against VIOTR. Type of assay: in vivo, Viola tricolor. The note with it: dosage 320 g/ha. The method in brief: as §3
In assay [16] the test system is AVEFA. Nature of the assay: Pre-emergence action at 320 g/ha against AVEFA. Type of assay: in vivo. To be noted: visual scoring after about 3 weeks vs untreated controls. The gist of the method: as §3
Assay [17] deals with KCHSC. Nature of the assay: Pre-emergence action against KCHSC, 1280 g/ha. The note with it: scored visually after about 3 weeks vs untreated controls (100% = plants have died). Type of assay: in vivo, Bassia scoparia. The method in brief:
as §1

Assay [18] has as its system DIGSA. In words: Pre-emergence action at 320 g/ha against DIGSA. To be noted: visual scoring after about 3 weeks vs untreated controls. Type of assay: in vivo, Digitaria sanguinalis. The method in brief:
as §3

Assay [19] relates to AMARE. Nature of the assay: Post-emergence action against AMARE, 1.28 kg/ha. Type of assay: in vivo, Amaranthus retroflexus. The note with it: dosage 1280 g/ha, visual rating about 3 weeks after treatment vs untreated controls (100% = plants died). The method in brief: as §2
Assay [20] relates to LOLRI. Nature of the assay: Pre-emergence action at 320 g/ha against LOLRI. To be noted: visual scoring after about 3 weeks vs untreated controls. Type of assay: in vivo, Lolium rigidum. The method in brief:
as §3

For assay [21], the system named is ALOMY. In words: Pre-emergence action at 320 g/ha against ALOMY. Type of assay: in vivo, Alopecurus myosuroides. The note with it: scored visually after about 3 weeks vs untreated controls (100% = plants have died). The gist of the method: as §3
Assay [22] concerns MATIN. Nature of the assay: Pre-emergence action at 320 g/ha against MATIN. To be noted: visual scoring after about 3 weeks vs untreated controls. Type of assay: in vivo, Tripleurospermum inodorum (Matricaria inodora). The method in brief: as §3
Assay [23] has as its system AVEFA. In words: Post-emergence action at 320 g/ha against AVEFA. Type of assay: in vivo. To be noted: visual rating about 3 weeks after treatment vs untreated controls. An excerpt:
Accordingly, the compounds of the invention have good herbicidal action against a broad spectrum of weed grasses and broad-leaved weeds and are therefore suitable for controlling unwanted vegetation by the post-emergence method. • b) Seeds of monocotyledonous and dicotyledonous weeds and crop plants are placed in sandy loam in plastic or organic planting pots, covered with soil and cultivated in a greenhouse under controlled growth conditions. 2 to 3 weeks after sowing, the test plants are treated at the one-leaf stage. The compounds of the invention, formulated in the form of wettable powders (WP) or as emulsion concentrates (EC), are then sprayed onto the green parts of the plants as aqueous suspension or emulsion with addition of 0.5% additive at a water application rate of 600 l/ha (converted). After the test plants have been kept in the greenhouse under optimum growth conditions for about 3 weeks, the activity of the preparations is rated visually in comparison to untreated controls. For example, 100% activity=the plants have died, 0% activity=like control plants. Tables 39 to 49 below show the effects of selected compounds of the general formula (I) according to Tables 1 and 2 on various harmful plants and at an application rate corresponding to 320 g/ha, which were obtained by the experimental procedure mentioned above.

Assay [24] relates to MATIN. Nature of the assay: Post-emergence action against MATIN, 1.28 kg/ha. Type of assay: in vivo, Tripleurospermum inodorum (Matricaria inodora). The note with it: dosage 1280 g/ha, visual rating about 3 weeks after treatment vs untreated controls (100% = plants died). The method in brief: as §2
For assay [25], the system named is LOLRI. Nature of the assay: Pre-emergence action against LOLRI, 1280 g/ha. Type of assay: in vivo, Lolium rigidum. To be noted: visual scoring after about 3 weeks vs untreated controls, 100% = plants have died, 0% = like control plants. The gist of the method: as §1
The test system of assay [26] is POLCO. In words: Pre-emergence action at 320 g/ha against POLCO. Type of assay: in vivo, Fallopia convolvulus (Polygonum convolvulus). The note with it: visual scoring after about 3 weeks vs untreated controls. The gist of the method:
as §3

In assay [27] the test system is AMARE. Nature of the assay: Pre-emergence action at 320 g/ha against AMARE. To be noted: visual scoring after about 3 weeks vs untreated controls. Type of assay: in vivo, Amaranthus retroflexus. The method in brief:
as §3

The test system of assay [28] is SETVI. In words: Pre-emergence action at 320 g/ha against SETVI. Type of assay: in vivo, Setaria viridis. To be noted: visual scoring after about 3 weeks vs untreated controls. The method in brief: as §3

Consider `CN(C)C(=O)COc1nn(-c2ccccc2F)c(-c2ccc(F)nc2)c1Br` [Example X-027], for which the “Pre-emergence action against STEME” value in assay [1] is 90%. The “Pre-emergence action against VERPE” value in assay [2] worked out at 100%. Besides, the “Pre-emergence action against SETVI” value in assay [3] is 100%. The “Pre-emergence action against AMARE” value in [4] is reported as 100%. The “Pre-emergence action against ABUTH” value in assay [5] stood at 90%. For the same compound, the “Post-emergence action against ECHCG” value in assay [6] is listed as 90%. For the same compound, the “Post-emergence action against VERPE” value in assay [7] amounted to 100%. For the same compound, the “Pre-emergence action against DIGSA” value in assay [8] amounted to 100%. Besides, the “Pre-emergence action against ALOMY” value in [9] was 100%. The “Pre-emergence action against ECHCG” value in assay [10] is listed as 100%. Further, the “Pre-emergence action against POAAN” value in [11] turned out to be 100%. In addition, in assay [12], the “Pre-emergence action against MATIN” value is given as 90%. In [13], the “Post-emergence action against POAAN” value was determined as 100%.
Regarding `C[C@@H](Oc1nn(-c2ccccc2F)c(-c2cncnc2)c1[N+](=O)[O-])C(=O)O` [VI-016], the “Pre-emergence action against STEME” value in assay [1] was 100%. For the same compound, the “Pre-emergence action against VERPE in %” value in assay [14] is 100%. Also, the “Pre-emergence action against VIOTR in %” value in assay [15] is 100%. Moreover, the “Pre-emergence action against AVEFA in %” value in assay [16] is reported as 80%. The “Pre-emergence action against KCHSC” value in assay [17] was determined as 100%. Besides, the “Pre-emergence action against VERPE” value in assay [2] was 100%. For the same compound, in assay [18], the “Pre-emergence action against DIGSA in %” value turned out to be 100%. In addition, the “Post-emergence action against AMARE” value in [19] is reported as 100%. In addition, in assay [20], the “Pre-emergence action against LOLRI in %” value is recorded as 100%. The “Pre-emergence action against SETVI” value in assay [3] was 100%. Besides, the “Pre-emergence action against AMARE” value in assay [4] came out at 100%. The “Pre-emergence action at 320 g/ha against ALOMY in %” value in assay [21] is on record as 100%. The “Pre-emergence action against MATIN in %” value in assay [22] amounted to 100%. Moreover, the “Post-emergence action against VERPE” value in [7] is reported as 90%. Moreover, the “Post-emergence action against AVEFA in %” value in assay [23] is listed as 90%. Moreover, in [24], the “Post-emergence action against MATIN” value amounted to 90%. The “Pre-emergence action against DIGSA” value in assay [8] turned out to be 100%. Further, the “Pre-emergence action against ALOMY” value in assay [9] is reported as 90%. In assay [10], the “Pre-emergence action against ECHCG” value was found to be 100%. In addition, the “Pre-emergence action against LOLRI” value in assay [25] is recorded as 100%. In assay [26], the “Pre-emergence action against POLCO in %” value amounted to 90%. Besides, the “Pre-emergence action against AMARE in %” value in assay [27] is reported as 100%. Also, in assay [28], the “Pre-emergence action against SETVI in %” value is on record as 100%. The “Pre-emergence action against POAAN” value in [11] was 100%. The “Pre-emergence action against MATIN” value in assay [12] was determined as 100%. The “Post-emergence action against POAAN” value in [13] was 100%.

The values above are taken from patent US12180187B2, “1-phenyl-5-azinylpyrazolyl-3-oxyalkyl acids and their use for controlling unwanted plant growth” (BAYER AKTIENGESELLSCHAFT, priority 2019, dated 2024).
